Converted amounts (≈) assume the structure as drawn.
Assays:
[1] = Drug metabolism in human liver S9 fraction assessed as NADPH-dependent glutathione conjugate level at 10 uM after 30 mins by LC-MS/MS analysis; assay type: ADME, subcellular; conditions: s9, 0.5 h
[2] = Drug metabolism in human liver S9 fraction assessed as glutathione conjugate level at 10 uM after 30 mins by HPLC in absence of NADPH; assay type: ADME, subcellular; conditions: s9, 0.5 h
[3] = Half life in Sprague-Dawley rat at 1 mg/kg, iv; assay type: ADME, organism-based; parameters: dose 1 mg/kg, route intravenous; conditions: in vivo
[4] = Oral bioavailability in Sprague-Dawley rat at 2 mg/kg; assay type: ADME, organism-based; conditions: in vivo
[5] = Drug metabolism in rat liver S9 fraction assessed as NADPH-dependent glutathione conjugate level at 10 uM after 30 mins by LC-MS/MS analysis; assay type: ADME, subcellular; conditions: s9, 0.5 h
[6] = Clearance in Sprague-Dawley rat at 1 mg/kg, iv and 2 mg/kg, po; assay type: ADME, organism-based; conditions: in vivo
[7] = target: T1, Prostaglandin E2 receptor EP3 subtype (Homo sapiens, UniProt P43115); experiment: Antagonist activity at human EP3c receptor expressed in human U2OS cells assessed as inhibition of PGE2-induced calcium mobilization after 24 hrs by FLIPR assay; assay type: functional, cell-based
T1 sequence (P43115 whole entry): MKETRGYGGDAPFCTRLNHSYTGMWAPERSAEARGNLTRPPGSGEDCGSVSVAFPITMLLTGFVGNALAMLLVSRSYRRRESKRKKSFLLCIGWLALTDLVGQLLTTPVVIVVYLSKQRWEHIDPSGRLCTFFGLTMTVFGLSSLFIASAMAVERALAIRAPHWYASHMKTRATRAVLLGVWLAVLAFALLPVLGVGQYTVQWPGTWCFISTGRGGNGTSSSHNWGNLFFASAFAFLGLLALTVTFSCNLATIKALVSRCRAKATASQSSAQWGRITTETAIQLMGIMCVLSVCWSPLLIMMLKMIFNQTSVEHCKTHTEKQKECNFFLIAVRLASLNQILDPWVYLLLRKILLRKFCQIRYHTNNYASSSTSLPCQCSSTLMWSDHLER

[8] = system: Rattus norvegicus; experiment: Dose-normalized AUC in Sprague-Dawley rat at 2 mg/kg, po; assay type: ADME, organism-based; parameters: dose 2 mg/kg, route oral; conditions: in vivo
[9] = target: T2, Prostaglandin E2 receptor EP3 subtype (Rattus norvegicus, UniProt P34980); experiment: Antagonist activity at rat EP3 receptor expressed in human U2OS cells co-expressing Gqi5 assessed as inhibition of PGE2-induced response after 24 hrs by FLIPR assay; assay type: functional, cell-based
T2 sequence (P34980 whole entry): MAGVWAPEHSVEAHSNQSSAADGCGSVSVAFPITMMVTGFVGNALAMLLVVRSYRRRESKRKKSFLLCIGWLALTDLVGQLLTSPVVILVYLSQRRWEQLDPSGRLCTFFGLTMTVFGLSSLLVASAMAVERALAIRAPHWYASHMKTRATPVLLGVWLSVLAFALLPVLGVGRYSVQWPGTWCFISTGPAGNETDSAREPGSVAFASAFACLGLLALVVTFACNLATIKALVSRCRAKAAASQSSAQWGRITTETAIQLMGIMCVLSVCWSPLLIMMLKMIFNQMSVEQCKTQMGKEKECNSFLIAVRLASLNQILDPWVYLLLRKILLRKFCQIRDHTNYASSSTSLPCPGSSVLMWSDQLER

[10] = Drug metabolism in rat liver S9 fraction assessed as glutathione conjugate level at 10 uM after 30 mins by HPLC in absence of NADPH; assay type: ADME, subcellular; conditions: s9, 0.5 h
[11] = target: Cytochrome P450 2C19 (Homo sapiens, UniProt P33261); experiment: Inhibition of CYP2C19; assay type: ADME
[12] = target: Prostaglandin F2-alpha receptor (Homo sapiens, UniProt P43088); experiment: Antagonist activity at FP receptor in human U2OS cells expressing Gqi5 assessed as inhibition of PGE2-induced response after 48 hrs by FLIPR assay; assay type: functional, cell-based
[13] = target: T3, Prostaglandin G/H synthase 2 (Rattus norvegicus, UniProt P35355); experiment: Inhibition of COX2 in rat whole blood assessed as decreased PGE2 production; assay type: tissue-based
T3 sequence (P35355 whole entry): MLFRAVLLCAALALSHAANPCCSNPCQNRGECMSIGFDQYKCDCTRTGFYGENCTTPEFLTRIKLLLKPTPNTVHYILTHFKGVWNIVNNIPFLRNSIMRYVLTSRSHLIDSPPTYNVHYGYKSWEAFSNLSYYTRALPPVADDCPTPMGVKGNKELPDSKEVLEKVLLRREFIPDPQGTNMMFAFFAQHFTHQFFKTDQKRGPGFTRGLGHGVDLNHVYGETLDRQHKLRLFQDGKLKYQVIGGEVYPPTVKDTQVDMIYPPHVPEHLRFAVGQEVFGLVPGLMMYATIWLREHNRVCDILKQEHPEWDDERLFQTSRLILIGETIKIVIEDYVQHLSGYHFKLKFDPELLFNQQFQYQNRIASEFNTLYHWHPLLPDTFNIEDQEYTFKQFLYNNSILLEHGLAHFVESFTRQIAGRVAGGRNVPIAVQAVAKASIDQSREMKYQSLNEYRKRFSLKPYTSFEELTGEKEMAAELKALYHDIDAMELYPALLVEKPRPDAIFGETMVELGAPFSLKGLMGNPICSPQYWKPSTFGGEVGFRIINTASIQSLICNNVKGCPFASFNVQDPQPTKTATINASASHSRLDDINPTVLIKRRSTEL

[14] = target: T4, Prostaglandin D2 receptor (Homo sapiens, UniProt Q13258); experiment: Binding affinity at human DP receptor
T4 sequence (Q13258 whole entry): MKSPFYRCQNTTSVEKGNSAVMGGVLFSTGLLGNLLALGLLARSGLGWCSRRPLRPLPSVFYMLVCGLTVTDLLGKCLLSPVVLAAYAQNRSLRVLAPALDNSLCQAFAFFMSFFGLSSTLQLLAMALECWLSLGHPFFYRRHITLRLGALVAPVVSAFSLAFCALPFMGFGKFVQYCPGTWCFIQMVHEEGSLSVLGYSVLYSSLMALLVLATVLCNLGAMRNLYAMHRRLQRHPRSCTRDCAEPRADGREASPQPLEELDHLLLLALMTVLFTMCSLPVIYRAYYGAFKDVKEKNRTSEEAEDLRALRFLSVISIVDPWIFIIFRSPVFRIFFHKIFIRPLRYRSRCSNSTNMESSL

[15] = target: Voltage-gated inwardly rectifying potassium channel KCNH2 (Homo sapiens, UniProt Q12809); experiment: Inhibition of human ERG
[16] = target: Prostaglandin E2 receptor EP2 subtype (Homo sapiens, UniProt P43116); experiment: Antagonist activity against human EP2 receptor expressed in CHO-K1 cells assessed as inhibition of cAMP production after 4 hrs by FRET signal in LANCE assay; assay type: functional, cell-based
[17] = target: Prostaglandin E2 receptor EP4 subtype (Homo sapiens, UniProt P35408); experiment: Binding affinity at human EP4 receptor
[18] = Aqueous solubility of the compound; assay type: physicochemical; conditions: buffer
[19] = target: Cytochrome P450 2C9 (Homo sapiens, UniProt P11712); experiment: Inhibition of CYP2C9; assay type: ADME
[20] = target: T5, Prostaglandin G/H synthase 1 (Rattus norvegicus, UniProt Q63921); experiment: Inhibition of COX1 in rat whole blood assessed as decreased PGE2 production; assay type: tissue-based
T5 sequence (Q63921 whole entry): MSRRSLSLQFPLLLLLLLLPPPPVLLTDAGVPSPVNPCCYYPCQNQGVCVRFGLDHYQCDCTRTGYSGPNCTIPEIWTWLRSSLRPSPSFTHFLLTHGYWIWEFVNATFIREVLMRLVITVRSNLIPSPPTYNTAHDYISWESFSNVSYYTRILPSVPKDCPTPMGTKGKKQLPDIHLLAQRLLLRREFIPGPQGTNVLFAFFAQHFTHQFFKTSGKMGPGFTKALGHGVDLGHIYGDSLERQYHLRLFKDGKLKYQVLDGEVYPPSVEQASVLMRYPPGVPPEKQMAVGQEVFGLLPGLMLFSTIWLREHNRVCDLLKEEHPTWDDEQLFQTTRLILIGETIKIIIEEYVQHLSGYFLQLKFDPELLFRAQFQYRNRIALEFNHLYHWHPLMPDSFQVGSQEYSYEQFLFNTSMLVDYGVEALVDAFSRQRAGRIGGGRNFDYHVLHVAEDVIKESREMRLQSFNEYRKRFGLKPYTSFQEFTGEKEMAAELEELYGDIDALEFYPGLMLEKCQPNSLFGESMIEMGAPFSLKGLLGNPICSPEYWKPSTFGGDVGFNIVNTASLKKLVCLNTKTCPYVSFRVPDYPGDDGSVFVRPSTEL

[21] = target: Cytochrome P450 3A4 (Homo sapiens, UniProt P08684); experiment: Inhibition of CYP3A4; assay type: ADME
[22] = target: T6, Cytochrome P450 1A2 (Homo sapiens, UniProt P05177); experiment: Inhibition of CYP1A2; assay type: ADME
T6 sequence (P05177 whole entry): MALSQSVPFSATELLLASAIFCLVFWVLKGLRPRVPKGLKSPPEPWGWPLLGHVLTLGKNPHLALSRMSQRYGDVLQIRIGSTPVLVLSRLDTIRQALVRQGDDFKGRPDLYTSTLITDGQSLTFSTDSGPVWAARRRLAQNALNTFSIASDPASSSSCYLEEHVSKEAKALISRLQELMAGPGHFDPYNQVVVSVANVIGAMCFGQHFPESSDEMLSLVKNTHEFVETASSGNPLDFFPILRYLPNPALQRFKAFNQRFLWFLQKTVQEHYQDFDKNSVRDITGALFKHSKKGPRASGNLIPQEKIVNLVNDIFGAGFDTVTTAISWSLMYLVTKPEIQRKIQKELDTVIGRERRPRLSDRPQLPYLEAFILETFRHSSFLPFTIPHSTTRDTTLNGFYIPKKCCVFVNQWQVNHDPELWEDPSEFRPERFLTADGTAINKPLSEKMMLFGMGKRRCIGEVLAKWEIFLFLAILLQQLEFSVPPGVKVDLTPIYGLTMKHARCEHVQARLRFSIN

[23] = target: T7, Prostaglandin E2 receptor EP1 subtype (Homo sapiens, UniProt P34995); experiment: Antagonist activity at EP1 receptor in human U2OS cells expressing Gqi5 assessed as inhibition of PGE2-induced response after 24 hrs by FLIPR assay; assay type: functional, cell-based
T7 sequence (P34995 whole entry): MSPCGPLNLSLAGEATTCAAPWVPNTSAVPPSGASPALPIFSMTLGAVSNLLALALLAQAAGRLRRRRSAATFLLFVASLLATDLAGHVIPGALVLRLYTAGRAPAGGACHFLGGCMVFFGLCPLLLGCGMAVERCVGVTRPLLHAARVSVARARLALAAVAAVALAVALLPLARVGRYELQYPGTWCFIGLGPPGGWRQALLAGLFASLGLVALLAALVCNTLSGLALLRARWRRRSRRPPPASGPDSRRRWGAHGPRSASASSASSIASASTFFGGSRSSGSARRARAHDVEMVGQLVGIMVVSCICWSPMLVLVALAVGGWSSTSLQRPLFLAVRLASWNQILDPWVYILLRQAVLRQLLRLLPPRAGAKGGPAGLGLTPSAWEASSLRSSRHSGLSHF

[24] = target: Cytochrome P450 2D6 (Homo sapiens, UniProt P10635); experiment: Inhibition of CYP2D6; assay type: ADME
[25] = target: T1, Prostaglandin E2 receptor EP3 subtype; experiment: Binding affinity to human EP3

Chain of Cytochrome P450 2D6 (P10635 whole entry): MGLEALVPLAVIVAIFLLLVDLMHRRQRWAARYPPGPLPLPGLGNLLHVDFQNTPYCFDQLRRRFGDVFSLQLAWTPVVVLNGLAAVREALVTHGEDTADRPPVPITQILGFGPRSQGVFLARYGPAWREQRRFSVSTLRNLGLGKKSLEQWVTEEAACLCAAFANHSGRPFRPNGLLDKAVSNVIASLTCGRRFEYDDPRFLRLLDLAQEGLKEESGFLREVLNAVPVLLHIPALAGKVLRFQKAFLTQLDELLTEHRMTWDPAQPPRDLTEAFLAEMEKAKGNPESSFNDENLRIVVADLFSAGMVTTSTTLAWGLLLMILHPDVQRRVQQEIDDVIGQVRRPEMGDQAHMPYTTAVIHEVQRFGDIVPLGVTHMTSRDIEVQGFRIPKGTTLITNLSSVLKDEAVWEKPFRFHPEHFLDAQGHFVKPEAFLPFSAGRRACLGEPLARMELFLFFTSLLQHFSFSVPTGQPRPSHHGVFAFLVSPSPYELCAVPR
Chain of Cytochrome P450 2C19 (P33261 whole entry): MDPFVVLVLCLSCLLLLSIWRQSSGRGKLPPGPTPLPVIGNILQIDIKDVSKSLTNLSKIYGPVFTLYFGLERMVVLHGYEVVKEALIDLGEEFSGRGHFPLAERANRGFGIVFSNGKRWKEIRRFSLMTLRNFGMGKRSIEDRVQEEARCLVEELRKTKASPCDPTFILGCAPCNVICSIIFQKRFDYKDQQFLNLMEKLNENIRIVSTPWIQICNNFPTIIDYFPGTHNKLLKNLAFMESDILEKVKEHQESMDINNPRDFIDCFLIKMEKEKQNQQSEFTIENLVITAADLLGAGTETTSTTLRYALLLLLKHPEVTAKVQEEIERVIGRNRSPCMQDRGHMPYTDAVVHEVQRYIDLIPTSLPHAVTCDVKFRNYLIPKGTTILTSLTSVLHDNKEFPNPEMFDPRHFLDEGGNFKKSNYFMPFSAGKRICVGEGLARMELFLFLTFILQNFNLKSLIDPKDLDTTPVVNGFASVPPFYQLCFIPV
Chain of Cytochrome P450 3A4 (P08684 whole entry): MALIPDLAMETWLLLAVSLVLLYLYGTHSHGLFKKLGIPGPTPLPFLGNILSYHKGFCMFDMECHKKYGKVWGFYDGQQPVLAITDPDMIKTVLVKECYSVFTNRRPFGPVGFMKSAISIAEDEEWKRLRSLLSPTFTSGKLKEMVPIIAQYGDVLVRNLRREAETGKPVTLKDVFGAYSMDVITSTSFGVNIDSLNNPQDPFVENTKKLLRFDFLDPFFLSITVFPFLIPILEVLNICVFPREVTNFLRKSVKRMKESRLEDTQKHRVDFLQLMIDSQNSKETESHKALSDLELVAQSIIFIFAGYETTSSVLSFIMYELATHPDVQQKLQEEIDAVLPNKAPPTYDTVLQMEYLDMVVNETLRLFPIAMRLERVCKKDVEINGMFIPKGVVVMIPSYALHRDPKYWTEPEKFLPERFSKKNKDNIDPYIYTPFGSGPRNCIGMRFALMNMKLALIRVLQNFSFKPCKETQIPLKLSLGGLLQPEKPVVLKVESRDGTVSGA
Chain of Prostaglandin E2 receptor EP2 subtype (P43116 whole entry): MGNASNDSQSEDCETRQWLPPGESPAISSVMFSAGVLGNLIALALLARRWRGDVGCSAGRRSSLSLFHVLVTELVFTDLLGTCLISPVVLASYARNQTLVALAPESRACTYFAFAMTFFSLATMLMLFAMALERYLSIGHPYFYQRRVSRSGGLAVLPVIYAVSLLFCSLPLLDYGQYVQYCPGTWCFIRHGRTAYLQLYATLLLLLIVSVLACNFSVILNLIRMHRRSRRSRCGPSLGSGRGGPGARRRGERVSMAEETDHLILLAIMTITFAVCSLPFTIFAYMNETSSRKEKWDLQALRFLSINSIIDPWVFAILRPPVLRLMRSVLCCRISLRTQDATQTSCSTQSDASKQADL
Chain of Cytochrome P450 2C9 (P11712 whole entry): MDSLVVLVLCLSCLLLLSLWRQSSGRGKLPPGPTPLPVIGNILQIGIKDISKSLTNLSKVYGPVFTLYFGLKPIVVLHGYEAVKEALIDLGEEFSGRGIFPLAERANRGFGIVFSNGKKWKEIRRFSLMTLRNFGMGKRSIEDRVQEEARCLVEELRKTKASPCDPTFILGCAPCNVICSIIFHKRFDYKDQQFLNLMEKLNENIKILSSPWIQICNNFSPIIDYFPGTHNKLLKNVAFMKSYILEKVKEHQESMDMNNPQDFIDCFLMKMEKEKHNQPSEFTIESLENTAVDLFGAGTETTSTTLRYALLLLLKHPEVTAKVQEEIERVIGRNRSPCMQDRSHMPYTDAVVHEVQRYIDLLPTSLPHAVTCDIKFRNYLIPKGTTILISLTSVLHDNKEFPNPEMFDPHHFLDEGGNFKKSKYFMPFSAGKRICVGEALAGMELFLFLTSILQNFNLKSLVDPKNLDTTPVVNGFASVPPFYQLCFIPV
Chain of Prostaglandin E2 receptor EP4 subtype (P35408 whole entry): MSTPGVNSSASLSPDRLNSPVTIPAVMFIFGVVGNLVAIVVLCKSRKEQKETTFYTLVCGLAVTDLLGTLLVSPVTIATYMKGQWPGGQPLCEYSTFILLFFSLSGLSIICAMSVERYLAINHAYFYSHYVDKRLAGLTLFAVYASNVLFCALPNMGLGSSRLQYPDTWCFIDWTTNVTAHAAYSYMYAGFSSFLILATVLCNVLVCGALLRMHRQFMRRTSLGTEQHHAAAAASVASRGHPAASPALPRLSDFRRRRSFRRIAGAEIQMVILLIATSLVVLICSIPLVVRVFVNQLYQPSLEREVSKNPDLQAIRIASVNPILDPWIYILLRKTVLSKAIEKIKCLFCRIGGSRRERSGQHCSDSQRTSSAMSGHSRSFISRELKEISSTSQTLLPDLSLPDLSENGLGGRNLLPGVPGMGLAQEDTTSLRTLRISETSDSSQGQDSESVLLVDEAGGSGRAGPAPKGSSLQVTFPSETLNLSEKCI
Chain of Voltage-gated inwardly rectifying potassium channel KCNH2 (Q12809 whole entry): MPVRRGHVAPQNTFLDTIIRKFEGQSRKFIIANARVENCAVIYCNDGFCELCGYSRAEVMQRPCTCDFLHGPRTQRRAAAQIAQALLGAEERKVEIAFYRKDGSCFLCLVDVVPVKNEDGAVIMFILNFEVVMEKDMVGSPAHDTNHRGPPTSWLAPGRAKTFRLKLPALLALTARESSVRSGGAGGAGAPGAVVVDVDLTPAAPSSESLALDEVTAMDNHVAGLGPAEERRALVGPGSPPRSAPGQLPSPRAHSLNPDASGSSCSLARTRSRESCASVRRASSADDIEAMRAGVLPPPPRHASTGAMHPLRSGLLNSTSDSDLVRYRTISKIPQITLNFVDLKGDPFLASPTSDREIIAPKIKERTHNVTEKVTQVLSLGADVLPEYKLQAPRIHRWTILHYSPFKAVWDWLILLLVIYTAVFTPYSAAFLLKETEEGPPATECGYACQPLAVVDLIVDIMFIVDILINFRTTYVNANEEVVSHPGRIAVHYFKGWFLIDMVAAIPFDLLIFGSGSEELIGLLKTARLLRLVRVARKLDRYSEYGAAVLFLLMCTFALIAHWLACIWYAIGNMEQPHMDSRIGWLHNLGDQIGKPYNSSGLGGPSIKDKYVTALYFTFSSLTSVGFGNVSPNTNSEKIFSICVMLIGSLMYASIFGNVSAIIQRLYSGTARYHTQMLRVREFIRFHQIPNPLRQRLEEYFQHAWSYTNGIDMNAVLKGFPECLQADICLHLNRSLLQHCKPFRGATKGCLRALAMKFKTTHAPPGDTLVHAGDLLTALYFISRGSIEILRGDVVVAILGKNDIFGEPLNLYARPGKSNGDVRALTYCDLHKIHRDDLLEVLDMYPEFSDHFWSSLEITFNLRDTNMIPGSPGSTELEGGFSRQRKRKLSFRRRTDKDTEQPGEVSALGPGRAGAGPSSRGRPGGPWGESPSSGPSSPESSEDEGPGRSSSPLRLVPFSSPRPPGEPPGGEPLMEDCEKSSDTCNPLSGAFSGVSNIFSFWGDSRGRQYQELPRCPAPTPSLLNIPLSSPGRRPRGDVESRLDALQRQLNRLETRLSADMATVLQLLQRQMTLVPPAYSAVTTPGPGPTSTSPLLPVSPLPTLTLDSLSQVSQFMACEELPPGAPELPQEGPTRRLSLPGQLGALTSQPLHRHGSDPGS
Chain of Prostaglandin F2-alpha receptor (P43088 whole entry): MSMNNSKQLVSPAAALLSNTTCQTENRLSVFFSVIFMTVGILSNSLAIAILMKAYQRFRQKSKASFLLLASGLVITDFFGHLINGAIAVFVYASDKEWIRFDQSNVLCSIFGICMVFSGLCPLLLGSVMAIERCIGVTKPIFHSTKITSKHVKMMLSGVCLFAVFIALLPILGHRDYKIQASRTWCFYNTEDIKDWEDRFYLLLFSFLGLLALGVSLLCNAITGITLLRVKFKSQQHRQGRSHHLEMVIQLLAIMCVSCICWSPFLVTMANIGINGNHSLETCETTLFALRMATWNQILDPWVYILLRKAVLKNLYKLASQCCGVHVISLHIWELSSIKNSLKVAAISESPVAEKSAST

Structure (SMILES) | Drug metabolism [1] | half-life [3] | bioavailability [4] | Drug metabolism [5] | clearance [6] | Ki [7] | AUC/dose [8] | Ki [9] | Ki [23] | further results
CC(C)C1(c2ccc(-c3ccc4c(ccn4C)c3)[nH]c2=O)OC(=O)NC1=O (stereo not given) | Not Active | 4.2 h | 80% | Not Active | 4.5 mL/min/kg | 6.31 nM | 3 µg·h/mL/mg/kg | 7.94 nM |  | Drug metabolism [2]: Not Active; Drug metabolism [10]: Not Active
CC(C)C1(c2ccc(-c3ccc4ccccc4c3)[nH]c2=O)OC(O)=NC1=O (stereo not given) | Not Active | 4 h | 83% | Active | 2.6 mL/min/kg | 10 nM | 5.5 µg·h/mL/mg/kg | 10 nM | > 50100 nM | IC50 [11]: > 50100 nM; IC50 [12]: > 50100 nM; IC50 [13]: > 100000 nM; IC50 [14]: > 50100 nM; IC50 [15]: > 50100 nM; IC50 [16]: > 50100 nM; IC50 [17]: > 50100 nM; solubility [18]: 193 µM (≈ 69.9 µg/mL); IC50 [19]: > 50100 nM; IC50 [20]: > 100000 nM; IC50 [21]: > 50100 nM; IC50 [22]: > 50100 nM; IC50 [24]: > 50100 nM; Ki [25]: 5.01 nM
O=C1NC(=O)C(c2ccc(-c3ccc4ccccc4c3)[nH]c2=O)O1 (stereo not given) |  | 5.1 h | 32% |  | 31 mL/min/kg | 200 nM | 0.17 µg·h/mL/mg/kg | 316 nM | > 5010 nM | 

Reference: ChEMBL document CHEMBL2034937, “Novel 3-Oxazolidinedione-6-aryl-pyridinones as Potent, Selective, and Orally Active EP3 Receptor Antagonists” (ACS Med Chem Lett, 2010)
